Measurements from US8344009B2, “Substituted phenoxy thiazolidinediones as estrogen related receptor-á modulators” (priority 2007, dated 2013).
Marks after values point to notes of the source that are not given here.

Legend:
C57/BL6 male mice = assay: C57/Bl6 diet induced obesity mouse model; type: in vivo
Excerpt: C57/B16 mice placed on a high fat diet are characterized by hypertriglyceridemia, impaired glucose tolerance and develop hepatic steatosis. Forty C57/BL6 male mice were received at seven weeks of age, allowed to acclimate for one week, placed on high fat diet (Test Diet 58Y1 60% of the calories from fat) for 6 weeks, and then single housed on the same diet for an additional five weeks. Body mass composition and insulin were used to randomize the animals into three groups. […] Ten additional animals were maintained on a low fat diet (4% calories from fat) and during the course of the study were given vehicle orally once a day. Blood was collected from the tail to evaluate glucose, triglyceride, FFA and insulin levels. Body weight and body composition were also recorded. Upon necropsy animals were bled through the orbital sinus under CO2:O2 anesthesia, sacrificed, and several tissues were collected and frozen in liquid nitrogen for storage at −80° C. for further use. Serum plasma samples were prepared by centrifugation in EDTA containing tubes, transferred to 96 well plates and stored at −80° C. Insulin, FFA and triglyceride levels were obtained via Day 10 tail bleed. On day fourteen an OGTT (Oral Glucose Tolerance Test) was done to determine glucose disposal rates in C57B16 mice treated with compound.

[1] = molecular target: T1, ERR1 (also known as ERR-α or ERR-1) (Homo sapiens, UniProt P11474); assay: TR-FRET assay (disruption of co-activator peptide binding to ERR1 LBD); type: biochemical
T1 sequence (P11474 193-421 limits assumed): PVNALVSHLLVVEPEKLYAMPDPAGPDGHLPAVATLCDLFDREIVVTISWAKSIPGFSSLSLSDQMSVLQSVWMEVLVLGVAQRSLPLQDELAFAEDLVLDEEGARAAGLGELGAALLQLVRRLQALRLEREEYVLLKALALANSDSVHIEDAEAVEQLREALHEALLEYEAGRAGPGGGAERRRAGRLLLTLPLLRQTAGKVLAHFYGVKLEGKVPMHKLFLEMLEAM
Procedure: Time-Resolved Fluorescence Resonance Energy Transfer (TR-FRET) experiments were performed to examine the functional response of ERR1 (also known as ERR-α or ERR-1) ligands. The TR-FRET assay described herein relied on the conformation of ERR1 for binding to a co-activator peptide: when a test compound binds to ERR1 and alters its conformation, it can disrupt the binding of the co-activator peptide. The components of this homogeneous secondary assay included: the ^6His-tagged-ERR1LBD, a GST-labeled-hSRC2 co-activator polypeptide and a fluorescent donor/acceptor pair from CIS bio international htrf/bioassays (Bedford, Mass.) using both an α-GST Europium Cryptate (Eu) label and an α^6His-XL665 (allophycocyanin) fluorophore.
Reactions were allowed to reach equilibrium at 25° C. for 4-18 hours before collecting data on the Analyst from LJL Biosystems (Molecular Devices Sunnyvale, Calif.). […] Dose response curves were fitted using a hyperbolic equation and the data reported is the average of 3 independent experiments.

ZDF fa/fa male rats = assay: ZDF diabetic rat model at 0.08, 0.4, 2 and 10 mpk; type: in vivo; conditions: for % Hb1Ac / FFA (NEFA) / Glucose / Triglycerides / cholesterol / ketone: 28 day ZDF efficacy study; for circulating glucose levels upon intraperitoneal delivery of insulin (ITT): FIG. 10
Excerpt: Briefly, sixty-five ZDF fa/fa male rats were received at four weeks of age and allowed to acclimate for one week. At five week of age the animals were single housed in cages in a temperature-controlled room with 12-hour light/dark cycle. They were allowed ad libitum access to water and food and throughout the study were maintained on a Purina 5008 diet. […] Animals were given Compound 1 orally once a day for 28 days in the morning at 0.08, 0.4, 2.0 and 10 mpk. The vehicle used for Compound 1 in this study consisted of 15% VE-TEPG, 30% PEG400 and 55% water. Food intake, body weight, glucose, insulin, triglyceride and free fatty acid levels were monitored throughout the study using blood collected from the tail vein. At day 16 of the study an insulin tolerance test (ITT) was done to evaluate peripheral insulin sensitivity. On day 22 an OGTT was done to assess glucose disposal rates. On the day of the necropsy the rats were bled through the orbital sinus under CO2:O2 anesthesia. Animals were sacrificed and several tissues were collected, frozen in liquid nitrogen and stored at −80° C. Serum plasma samples were prepared by centrifugation in EDTA containing tubes, transferred into 96 well plates and stored at −80° C.

[2] = 10 mpk once a day, HFD, 10 days
[3] = 10 mpk, after 14 days of treatment
[4] = 30 mpk once a day, HFD, 10 days
[5] = 30 mpk, after 14 days of treatment

## COc1cc(/C=C2\SC(=O)NC2=O)ccc1Oc1ccc(C#N)cc1C(F)(F)F [Compound 1, 4-[4-(2,4-Dioxo-thiazolidin-5-ylidenemethyl)-2-methoxy-phenoxy]-3-trifluoromethyl-benzonitrile]
C57/BL6 male mice; [2]
  FFA: 0.38* mEq/L
  Insulin: 1.4* μg/L
C57/BL6 male mice; 10 mpk once a day, HFD, 10 days, tail bleed
  Triglyceride: 58** mg/dL
C57/BL6 male mice; [3]
  AUC 0-60 min of glucose in OGTT: 15077 mg/dL/1 hr
  AUC 0-120 min of glucose in OGTT: 27984 mg/dL/2 hr
C57/BL6 male mice; 10 mpk, treated for 18 days
  3-hydroxy-butyrate: 6.0 ×10−5
  FFA (NEFA): 0.49 mEq
  Glucose: 176 mg/dL
  LDL: 12 mg/dL
  Triglyceride: 123 mg/dL
C57/BL6 male mice; [4]
  FFA: 0.40* mEq/L
  Insulin: 1.3* μg/L
C57/BL6 male mice; 30 mpk once a day, HFD, 10 days, tail bleed
  Triglyceride: 59* mg/dL
C57/BL6 male mice; [5]
  AUC 0-60 min of glucose in OGTT: 14425* mg/dL/1 hr
  AUC 0-120 min of glucose in OGTT: 28540 mg/dL/2 hr
C57/BL6 male mice; 30 mpk, treated for 18 days
  3-hydroxy-butyrate: 9.1* ×10−5
  FFA (NEFA): 0.38* mEq
  Glucose: 174 mg/dL
  LDL: 7* mg/dL
  Triglyceride: 58*** mg/dL
C57/BL6 male mice; FIG. 2 and Table VI, after 14 days of treatment
  plasma glucose following an oral glucose tolerance test: reduces fasting plasma glucose following an oral glucose tolerance test
[1]
  EC50: 54 nM
ZDF fa/fa male rats; 0.08 mpk orally once a day
  Body weight change (0-28 day): 71.7
  Total food intake (0-28 days): 804.5
ZDF fa/fa male rats; 0.08 mpk
  % Hb1Ac: 10.1%
  FFA (NEFA): 1.2 mM
  Glucose: 444 mg/dL
  Triglycerides: 770 mg/dL
  cholesterol: 118 mg/dL
  ketone: 162 µmol/L
ZDF fa/fa male rats; 0.4 mpk orally once a day
  Body weight change (0-28 day): 61.9
  Total food intake (0-28 days): 792.3
ZDF fa/fa male rats; 0.4 mpk
  % Hb1Ac: 10.0%
  FFA (NEFA): 0.61 mM
  Glucose: 419 mg/dL
  Triglycerides: 672 mg/dL
  cholesterol: 119 mg/dL
  ketone: 113 µmol/L
ZDF fa/fa male rats; 2.0 mpk orally once a day
  Body weight change (0-28 day): 80.4
  Total food intake (0-28 days): 792.6
ZDF fa/fa male rats; 2.0 mpk
  % Hb1Ac: 8.8%
  FFA (NEFA): 0.87 mM
  Glucose: 376 mg/dL
  Triglycerides: 605 mg/dL
  cholesterol: 117 mg/dL
  ketone: 95* umol/L
ZDF fa/fa male rats; 10 mpk orally once a day
  Body weight change (0-28 day): 95.4
  Total food intake (0-28 days): 771.4
ZDF fa/fa male rats; 10.0 mpk
  % Hb1Ac: 7.7%
  FFA (NEFA): 0.75 mM
  Glucose: 274* mg/dL
  Triglycerides: 506 mg/dL
  cholesterol: 121 mg/dL
  ketone: 85* umol/L
ZDF fa/fa male rats
  circulating glucose levels upon intraperitoneal delivery of insulin (ITT): reduction in circulating glucose levels
ZDF fa/fa male rats; listed as compound 1
  circulating glucose levels upon intraperitoneal delivery of insulin (ITT): normalizing glucose levels at the 30 minute time point
ZDF fa/fa male rats; FIG. 10 right panel, 0-60 and 0-120 minute time point
  AUC of glucose during the ITT: reduction of AUC of glucose
ZDF fa/fa male rats; FIG. 11, after a 4 and 16 hour fast
  fasting glucose levels: reduction in fasting glucose levels
ZDF fa/fa male rats; FIG. 12, OGTT day 22
  plasma glucose following an oral glucose tolerance test: reducing fasting plasma glucose
ZDF fa/fa male rats; FIG. 13, first three weeks of the study
  fed plasma glucose levels: lowering of fed plasma glucose levels
